Assay results published in ChEMBL document CHEMBL1201862, “PubChem BioAssay data set” (2004).
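Dose response: 5 concentrations. Exposure: 48 h. Format: 96-well plates. Endpoint: linear interpolation; highest concentration if not reached. Here, GI50 denotes the concentration required for 50% inhibition of growth.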 Active and inactive are the calls of the source. Rule as the data show it: active = GI50 up to about 1.1 µM and inactive = higher.

What was measured:
Experiment in all cases: DTP human tumour cell line panel, 48 h
OVCAR-3 = system: OVCAR-3
MOLT-4 = system: MOLT-4
SF-268 = system: SF-268
DU-145 = system: DU-145
LOX IMVI = system: LOX IMVI
K562 = system: K562
M14 = system: M14
SN12C = system: SN12C
IGROV-1 = system: IGROV-1
HT-29 = system: HT-29
SF-539 = system: SF-539
OVCAR-8 = system: OVCAR-8
A498 = system: A498
HL-60 = system: HL-60
SR = system: SR
TK-10 = system: TK-10
COLO 205 = system: COLO 205
SNB-19 = system: SNB-19
SW-620 = system: SW-620
Malme-3M = system: Malme-3M

| Structure (SMILES) | GI50 (OVCAR-3) | GI50 (MOLT-4) | GI50 (SF-268) | GI50 (DU-145) | GI50 (LOX IMVI) | GI50 (K562) | GI50 (M14) | GI50 (SN12C) | GI50 (IGROV-1) | GI50 (HT-29) | GI50 (SF-539) | GI50 (OVCAR-8) | GI50 (A498) | GI50 (HL-60) | GI50 (SR) | GI50 (TK-10) | GI50 (COLO 205) | GI50 (SNB-19) | GI50 (SW-620) | GI50 (Malme-3M) |
| --- | --- | --- | --- | --- | --- | --- | --- | --- | --- | --- | --- | --- | --- | --- | --- | --- | --- | --- | --- | --- |
| O=C(CCc1cccc(O)c1)NCCc1cccc(OCc2ccccc2)c1 | 6.55 µM (inactive) | 11 µM (inactive) | 15.3 µM (inactive) | 27.5 µM (inactive) | 15.6 µM (inactive) | 20.5 µM (inactive) | 16.2 µM (inactive) | 18.8 µM (inactive) | 8.93 µM (inactive) | 16.6 µM (inactive) | 16.8 µM (inactive) | 26.7 µM (inactive) | 25.4 µM (inactive) | 28.4 µM (inactive) | 25 µM (inactive) | 24.1 µM (inactive) | 19.7 µM (inactive) | 22.8 µM (inactive) | 21.3 µM (inactive) | 17.6 µM (inactive) |
| CC(C)=CCC[C@@H](C)C1=C(O)C(=O)C(C)=C(Nc2ccccc2Cl)C1=O | 10.8 µM (inactive) | 5 µM (inactive) | 16 µM (inactive) | 36.2 µM (inactive) | 8.57 µM (inactive) | 36 µM (inactive) | 21.4 µM (inactive) | 25.1 µM (inactive) | 5.81 µM (inactive) | 13 µM (inactive) | 9.31 µM (inactive) | 4.71 µM (inactive) | 17.5 µM (inactive) | 1.22 µM (inactive) | 11.5 µM (inactive) | 33.7 µM (inactive) | 14.2 µM (inactive) | 30.7 µM (inactive) | 27 µM (inactive) | 11.3 µM (inactive) |
| CCOC(=O)c1ccc(-n2cnc(-c3ccc([N+](=O)[O-])cc3)c2)cc1 | 79.8 µM (inactive) | > 100 µM (inactive) | 56.2 µM (inactive) | > 100 µM (inactive) | > 100 µM (inactive) | > 100 µM (inactive) | > 100 µM (inactive) | > 100 µM (inactive) | > 100 µM (inactive) | > 100 µM (inactive) | > 100 µM (inactive) | > 100 µM (inactive) | > 100 µM (inactive) | > 100 µM (inactive) | > 100 µM (inactive) | 33.9 µM (inactive) | > 100 µM (inactive) | 35.7 µM (inactive) | 75.7 µM (inactive) | 80.7 µM (inactive) |
| COc1ccc2nc(C)cc(NCCCCCCCCCNc3cc(C)nc4ccc(OC)cc34)c2c1 | 1.24 µM (inactive) | 1.29 µM (inactive) | 1.93 µM (inactive) | 6.07 µM (inactive) | 0.714 µM (active) | 0.264 µM (active) | 1.95 µM (inactive) | 3.6 µM (inactive) | 2.99 µM (inactive) | 0.55 µM (active) | 1.27 µM (inactive) | 0.527 µM (active) | 13.7 µM (inactive) | 0.824 µM (active) | 0.486 µM (active) | 4.66 µM (inactive) | 2.28 µM (inactive) | 2.67 µM (inactive) | 0.957 µM (active) | 9.27 µM (inactive) |
| Cn1c2c(c3c(=O)[nH]ncc31)Cc1ccccc1-2 | 12.7 µM (inactive) | 3.45 µM (inactive) | 12 µM (inactive) | 10.6 µM (inactive) | 6.65 µM (inactive) | 18.2 µM (inactive) | 15.6 µM (inactive) | 7.62 µM (inactive) | 6.79 µM (inactive) | 9.64 µM (inactive) | 19.2 µM (inactive) | 11.7 µM (inactive) | 6.62 µM (inactive) | 14.7 µM (inactive) | 3.79 µM (inactive) | 5.81 µM (inactive) | 10.9 µM (inactive) | 18.2 µM (inactive) | 7.24 µM (inactive) | 16.3 µM (inactive) |
| COC(=O)C1=C(C)NC(C)=C([N+](=O)[O-])C1c1cccc(N=O)c1 (stereo not given) | 15 µM (inactive) | 3.18 µM (inactive) | 17.5 µM (inactive) | 15.2 µM (inactive) | 16.1 µM (inactive) | 4.47 µM (inactive) | 13.1 µM (inactive) | 19.7 µM (inactive) | 16 µM (inactive) | 16.8 µM (inactive) | 16.8 µM (inactive) | 16.3 µM (inactive) | 24.4 µM (inactive) | > 100 µM (inactive) | 3.36 µM (inactive) | 12.8 µM (inactive) | 15.7 µM (inactive) | 29.7 µM (inactive) | 3.58 µM (inactive) | 12.5 µM (inactive) |
| c1ccc2c3c(c(N4CCOCC4)nc2c1)CCCC3 | 36.6 µM (inactive) | 30 µM (inactive) | 66.5 µM (inactive) | 33.3 µM (inactive) | 39.9 µM (inactive) | 49.8 µM (inactive) | 50.7 µM (inactive) | 34.2 µM (inactive) | > 100 µM (inactive) | 22.7 µM (inactive) | 20.8 µM (inactive) | 57.5 µM (inactive) | 24 µM (inactive) | 14.2 µM (inactive) | 46.8 µM (inactive) | 63.4 µM (inactive) | 20 µM (inactive) | 36.9 µM (inactive) | 43.8 µM (inactive) | 75.2 µM (inactive) |
| C/C1=C\CC[C@@]2(C)O[C@@H]2C[C@@H](C2(C)CO2)CC/C(C)=C/CC1 (stereo not given in full) | 23.8 µM (inactive) | 47.2 µM (inactive) | 17.1 µM (inactive) | 24.8 µM (inactive) | 14.4 µM (inactive) | 34.4 µM (inactive) | 22.8 µM (inactive) | 17.7 µM (inactive) | 32.9 µM (inactive) | 34.4 µM (inactive) | 21.7 µM (inactive) | 19.1 µM (inactive) | > 100 µM (inactive) | 27.1 µM (inactive) | 33 µM (inactive) | 15.4 µM (inactive) | 15.6 µM (inactive) | 19.4 µM (inactive) | 32.8 µM (inactive) | 15.3 µM (inactive) |
| Cc1ccccc1Nc1nc2c(s1)C(=O)c1ccccc1C2=O | 2.24 µM (inactive) | 2.43 µM (inactive) | 4.33 µM (inactive) | 6.67 µM (inactive) | 2.26 µM (inactive) | 3.07 µM (inactive) | 5.82 µM (inactive) | 3.3 µM (inactive) | 9.55 µM (inactive) | 19.1 µM (inactive) | 5.73 µM (inactive) | 2.86 µM (inactive) | 22.4 µM (inactive) | 2.31 µM (inactive) | 3.27 µM (inactive) | 22.7 µM (inactive) | 16.8 µM (inactive) | 7.21 µM (inactive) | 2.49 µM (inactive) | 15 µM (inactive) |
| C[n+]1c(-c2ccc(/C=C/C=N\NC(=O)c3ccc(C(=O)N/N=C\C=C\c4ccc(-c5cn6ccccc6[n+]5C)cc4)cc3)cc2)cn2ccccc21 | > 64 µM (inactive) | 43.6 µM (inactive) | > 100 µM (inactive) | > 54.3 µM (inactive) | > 68.7 µM (inactive) | 27.5 µM (inactive) | > 100 µM (inactive) | > 100 µM (inactive) | > 68.5 µM (inactive) | > 100 µM (inactive) | > 100 µM (inactive) | > 100 µM (inactive) | > 100 µM (inactive) | 30.2 µM (inactive) | 19.9 µM (inactive) | > 86.3 µM (inactive) | > 100 µM (inactive) | > 63.4 µM (inactive) | > 100 µM (inactive) | > 100 µM (inactive) |
| O=C1NCC2(CCNCC2)N1c1ccccc1 | > 100 µM (inactive) | > 100 µM (inactive) | > 100 µM (inactive) | > 100 µM (inactive) | > 100 µM (inactive) | > 100 µM (inactive) | > 100 µM (inactive) | > 100 µM (inactive) | > 100 µM (inactive) | > 100 µM (inactive) | > 100 µM (inactive) | > 100 µM (inactive) | > 100 µM (inactive) | > 100 µM (inactive) | > 100 µM (inactive) | > 100 µM (inactive) | > 100 µM (inactive) | > 100 µM (inactive) | > 100 µM (inactive) | > 100 µM (inactive) |
| COC(=O)c1cc2/c(=N/O)c3ccccc3sc2o1 | > 100 µM (inactive) | > 100 µM (inactive) | > 100 µM (inactive) | > 100 µM (inactive) | > 100 µM (inactive) | > 100 µM (inactive) | > 100 µM (inactive) | > 100 µM (inactive) | > 100 µM (inactive) | > 100 µM (inactive) | > 100 µM (inactive) | > 100 µM (inactive) | > 100 µM (inactive) | > 100 µM (inactive) | > 100 µM (inactive) | > 100 µM (inactive) | > 100 µM (inactive) | > 100 µM (inactive) | > 100 µM (inactive) | > 100 µM (inactive) |
| O=C(O)c1c(CC(Cc2ccccc2)C(=O)O)ccc2c1CCC2 (stereo not given) | > 100 µM (inactive) | > 100 µM (inactive) | > 100 µM (inactive) | > 100 µM (inactive) | > 100 µM (inactive) | > 100 µM (inactive) | > 10 µM (inactive) | > 100 µM (inactive) | > 100 µM (inactive) | > 100 µM (inactive) | > 100 µM (inactive) | > 100 µM (inactive) | > 100 µM (inactive) | > 100 µM (inactive) | > 100 µM (inactive) | > 100 µM (inactive) | > 100 µM (inactive) | > 100 µM (inactive) | > 100 µM (inactive) | > 100 µM (inactive) |
